The target of one test is T1, M3 muscarinic receptors (Homo sapiens, UniProt P20309).
T1 construct: expressed in transfected cells; host or cells: CHO cells
As to the kind of experiment: Radioligand binding assay, muscarinic M3 receptors. To be noted: test compound 1×10^−6 M. In outline: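 Radioligand competition binding, detected by scintillation counting; non-specific binding defined with excess unlabelled ligand. Results given as % inhibition of control specific binding; IC50 from Hill-equation fit of competition curves, Ki via Cheng-Prusoff with radioligand KD from Scatchard plot.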

The subject of a further test is σ receptors. Kind of test: Radioligand binding assay, σ receptors. As to conditions: rat cerebral cortex, [3H]DTG 8 nM. From the text:
The specific ligand binding to the receptors is defined as the difference between the total binding and the non-specific binding determined in the presence of the excess of unlabelled ligand.
The results are expressed as a percent of control specific binding ((measured specific binding/control specific binding)×100) and as a percent inhibition of control specific binding (100−((measured specific binding/control specific binding)×100)) obtained in the presence of the test compounds. The specific ligand binding to the receptors is defined as the difference between the total binding and the nonspecific binding determined in the presence of an excess of unlabelled ligand. Scintillation counting was the method of detection of ligand binding. The IC50 values (concentration causing a half-maximal inhibition of control specific binding) were determined by non-linear regression analysis of the competition curves generated with mean replicate values using Hill equation curve fitting (Y=D+[(A−D)/(1+(C/C50)nH)], where Y=specific binding, D=minimum specific binding, A=maximum specific binding, C=compound concentration, C50=IC50, and nH=slope factor). […] The inhibition constants (Ki) were calculated using the Cheng Prusoff equation (Ki=IC50/(1+(L/KD)), where L=concentration of radioligand in the assay, and KD=affinity of the radioligand for the receptor). A scatchard plot was used to determine the Kd.

Test [1] concerns the target T2, serotonin transporter (SERT) (Homo sapiens, UniProt P31645).
T2 construct: expressed in transfected cells; host or cells: CHO cells
As to the kind of experiment: Radioligand binding assay, serotonin transporter (SERT). To be noted: binding assay, test compound 1×10^−6 M. In outline:
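Values are derived from competition curves fitted by the Hill equation to give IC50, then converted to Ki by Cheng-Prusoff with radioligand Kd from Scatchard analysis. Specific binding equals total minus non-specific (excess cold ligand), counted by scintillation, and is also expressed as percent inhibition of control.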

Test [2] concerns the target dopaminergic receptors D2 (Homo sapiens, UniProt P14416). As to the kind of experiment: Radioligand binding assay, dopaminergic D2 receptors. To be noted: binding assay, test compound 1×10^−6 M. In outline:
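Values derive from competition curves: percent inhibition of control specific binding was fitted by Hill non-linear regression for IC50, and Ki calculated with Cheng–Prusoff from radioligand concentration and KD (Scatchard). Bound ligand was detected by scintillation counting.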

For test [3], the system named is α1 adrenergic receptors (rat cerebral cortex). Kind of test: Radioligand binding assay, adrenergic α1 receptors. To be noted: test compound 1×10^−6 M. An outline of the steps:
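Values derive from radioligand displacement, with non-specific binding defined by excess cold ligand and detection by scintillation. Hill-fit IC50s were converted to Ki via Cheng-Prusoff using Scatchard-derived Kd; percent inhibition of control specific binding also reported.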

Test [4] has as its target T3, H1 histaminergic receptors (Homo sapiens, UniProt P35367).
T3 construct: expressed in transfected cells; host or cells: HEK-293 cells
Kind of test: Radioligand binding assay, histaminergic H1 receptors. To be noted: human recombinant (HEK-293 cells), [3H]pyrilamine 1 nM. In outline: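 Competition binding at human H1 receptors; specific binding taken as total minus non-specific binding in excess unlabelled ligand, scintillation read-out. IC50 from Hill-equation fit of competition curves; Ki by Cheng-Prusoff using radioligand concentration and Kd (from Scatchard plot).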

A further test has as its target T4, 5-HT2C receptor (Homo sapiens, UniProt P28335).
T4 construct: expressed in transfected cells; host or cells: HEK-293 cells
T4 sequence (P28335 33-458): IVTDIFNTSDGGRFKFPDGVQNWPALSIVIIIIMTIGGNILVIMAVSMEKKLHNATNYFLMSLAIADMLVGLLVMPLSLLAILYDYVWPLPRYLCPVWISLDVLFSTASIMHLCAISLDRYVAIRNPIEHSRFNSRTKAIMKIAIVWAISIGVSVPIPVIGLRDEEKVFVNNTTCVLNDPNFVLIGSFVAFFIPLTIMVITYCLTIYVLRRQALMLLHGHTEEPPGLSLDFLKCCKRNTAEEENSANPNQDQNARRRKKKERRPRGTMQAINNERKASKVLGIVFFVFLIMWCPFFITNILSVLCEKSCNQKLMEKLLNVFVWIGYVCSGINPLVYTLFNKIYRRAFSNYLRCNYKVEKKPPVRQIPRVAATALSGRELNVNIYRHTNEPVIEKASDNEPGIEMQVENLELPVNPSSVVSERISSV
As to the kind of experiment: Radioligand binding assay, serotoninergic 5-HT2C receptors. As to conditions: test compound 1×10^−6 M.

Test [5] has as its target T5, 5-HT1A receptor (rat hippocampus) (Rattus norvegicus, UniProt P19327).
T5 construct: hippocampus; from tissue; host or cells: rat hippocampus
T5 sequence (P19327 1-422): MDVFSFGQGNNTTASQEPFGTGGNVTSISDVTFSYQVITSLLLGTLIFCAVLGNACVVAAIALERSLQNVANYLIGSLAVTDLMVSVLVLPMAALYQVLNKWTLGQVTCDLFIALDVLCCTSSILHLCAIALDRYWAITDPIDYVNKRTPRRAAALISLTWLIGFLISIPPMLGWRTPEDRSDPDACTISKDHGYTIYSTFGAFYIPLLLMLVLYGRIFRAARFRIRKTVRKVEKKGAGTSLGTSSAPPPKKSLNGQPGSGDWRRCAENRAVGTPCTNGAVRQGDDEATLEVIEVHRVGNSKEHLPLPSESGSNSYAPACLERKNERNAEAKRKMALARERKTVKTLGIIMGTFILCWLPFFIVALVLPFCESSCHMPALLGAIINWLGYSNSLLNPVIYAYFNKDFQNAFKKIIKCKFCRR
Kind of test: Radioligand binding assay, serotoninergic 5-HT1A receptors. As to conditions: binding assay result in %, Table 5a.

Another test deals with T6, 5-HT2A receptor (Homo sapiens, UniProt P28223).
T6 construct: purchased PerkinElmer
T6 sequence (P28223 whole entry): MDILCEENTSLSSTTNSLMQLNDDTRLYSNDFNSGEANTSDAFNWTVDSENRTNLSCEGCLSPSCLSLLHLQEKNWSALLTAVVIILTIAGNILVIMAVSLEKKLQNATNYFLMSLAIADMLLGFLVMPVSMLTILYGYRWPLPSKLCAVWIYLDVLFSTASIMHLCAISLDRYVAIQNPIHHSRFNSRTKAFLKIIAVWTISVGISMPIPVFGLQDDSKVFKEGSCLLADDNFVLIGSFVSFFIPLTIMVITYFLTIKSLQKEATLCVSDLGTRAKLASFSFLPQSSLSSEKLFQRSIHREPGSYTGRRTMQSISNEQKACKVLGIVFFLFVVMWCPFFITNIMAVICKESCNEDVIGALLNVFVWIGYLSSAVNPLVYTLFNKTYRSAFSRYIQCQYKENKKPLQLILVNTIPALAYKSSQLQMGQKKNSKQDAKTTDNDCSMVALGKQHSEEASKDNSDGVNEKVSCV
As to the kind of experiment: Radioligand binding assay, serotoninergic 5-HT2A receptors. To be noted: binding assay result in %, Table 5a. In outline:
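Competition curves from scintillation-counted specific binding (total minus binding with excess unlabelled ligand) were Hill-fitted to give IC50, converted to Ki via Cheng-Prusoff using Scatchard-derived Kd.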

Test [6] addresses dopaminergic receptors D3 (Homo sapiens, UniProt P35462). As to the kind of experiment: Radioligand binding assay, dopaminergic D3 receptors. As to conditions: test compound 1×10^−6 M. In outline:
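Scintillation read-out. Specific = total − nonspecific (excess cold ligand). Data as % of control specific binding / % inhibition; IC50 by Hill fit; Ki = IC50/(1+L/KD), KD from Scatchard plot.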

Results on nine molecules are retold here after patent US20140135310A1, “SULPHONAMIDE DERIVATIVES OF ALICYCLIC AMINES FOR THE TREATMENT OF CENTRAL NERVOUS SYSTEM DISEASES” (Adamed Sp. z o.o., priority 2011, published 2014).

As a reminder, the inhibition is the change of the read-out against control, counted positive when it falls.

dopaminergic receptors D2, sequence (P14416 whole entry): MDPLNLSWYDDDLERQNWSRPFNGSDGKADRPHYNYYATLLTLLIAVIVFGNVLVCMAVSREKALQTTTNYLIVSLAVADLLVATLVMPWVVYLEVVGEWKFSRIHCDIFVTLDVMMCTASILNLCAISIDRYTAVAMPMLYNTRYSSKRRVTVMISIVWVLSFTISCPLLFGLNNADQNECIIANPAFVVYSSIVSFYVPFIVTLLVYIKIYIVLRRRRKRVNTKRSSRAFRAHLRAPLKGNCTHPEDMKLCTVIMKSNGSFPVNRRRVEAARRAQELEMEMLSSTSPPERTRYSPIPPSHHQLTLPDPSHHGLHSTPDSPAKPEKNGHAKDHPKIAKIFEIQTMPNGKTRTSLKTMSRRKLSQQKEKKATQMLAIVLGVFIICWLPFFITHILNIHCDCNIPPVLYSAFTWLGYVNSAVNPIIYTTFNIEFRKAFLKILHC
T3 sequence (P35367 whole entry): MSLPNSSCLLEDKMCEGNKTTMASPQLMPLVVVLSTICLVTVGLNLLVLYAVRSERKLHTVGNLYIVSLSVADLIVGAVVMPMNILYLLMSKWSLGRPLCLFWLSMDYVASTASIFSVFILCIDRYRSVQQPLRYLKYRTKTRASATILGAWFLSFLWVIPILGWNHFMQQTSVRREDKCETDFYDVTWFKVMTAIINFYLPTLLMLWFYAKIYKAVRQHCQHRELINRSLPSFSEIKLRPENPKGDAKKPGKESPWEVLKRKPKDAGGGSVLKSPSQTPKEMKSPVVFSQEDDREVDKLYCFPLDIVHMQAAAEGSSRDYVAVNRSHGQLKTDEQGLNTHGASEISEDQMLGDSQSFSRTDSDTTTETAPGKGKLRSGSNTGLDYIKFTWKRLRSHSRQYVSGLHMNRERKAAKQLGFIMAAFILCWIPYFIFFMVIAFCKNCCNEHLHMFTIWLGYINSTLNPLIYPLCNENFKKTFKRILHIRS
T1 sequence (P20309 whole entry): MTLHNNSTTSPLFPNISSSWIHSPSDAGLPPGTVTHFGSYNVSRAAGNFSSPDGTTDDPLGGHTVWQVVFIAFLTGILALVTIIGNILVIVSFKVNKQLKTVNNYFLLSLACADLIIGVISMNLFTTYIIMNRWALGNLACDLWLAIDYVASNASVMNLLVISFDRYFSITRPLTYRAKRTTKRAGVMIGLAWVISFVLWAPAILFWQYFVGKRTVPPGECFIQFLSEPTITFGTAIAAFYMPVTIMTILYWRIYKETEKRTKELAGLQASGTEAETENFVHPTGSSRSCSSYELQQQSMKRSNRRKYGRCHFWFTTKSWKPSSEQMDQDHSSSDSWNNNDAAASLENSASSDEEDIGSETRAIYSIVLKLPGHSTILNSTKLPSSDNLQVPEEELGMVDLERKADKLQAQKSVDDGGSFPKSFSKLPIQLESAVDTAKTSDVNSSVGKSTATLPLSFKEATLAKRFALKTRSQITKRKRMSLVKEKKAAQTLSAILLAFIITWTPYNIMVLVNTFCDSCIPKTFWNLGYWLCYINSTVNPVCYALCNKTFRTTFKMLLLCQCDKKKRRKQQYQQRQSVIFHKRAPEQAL
T2 sequence (P31645 whole entry): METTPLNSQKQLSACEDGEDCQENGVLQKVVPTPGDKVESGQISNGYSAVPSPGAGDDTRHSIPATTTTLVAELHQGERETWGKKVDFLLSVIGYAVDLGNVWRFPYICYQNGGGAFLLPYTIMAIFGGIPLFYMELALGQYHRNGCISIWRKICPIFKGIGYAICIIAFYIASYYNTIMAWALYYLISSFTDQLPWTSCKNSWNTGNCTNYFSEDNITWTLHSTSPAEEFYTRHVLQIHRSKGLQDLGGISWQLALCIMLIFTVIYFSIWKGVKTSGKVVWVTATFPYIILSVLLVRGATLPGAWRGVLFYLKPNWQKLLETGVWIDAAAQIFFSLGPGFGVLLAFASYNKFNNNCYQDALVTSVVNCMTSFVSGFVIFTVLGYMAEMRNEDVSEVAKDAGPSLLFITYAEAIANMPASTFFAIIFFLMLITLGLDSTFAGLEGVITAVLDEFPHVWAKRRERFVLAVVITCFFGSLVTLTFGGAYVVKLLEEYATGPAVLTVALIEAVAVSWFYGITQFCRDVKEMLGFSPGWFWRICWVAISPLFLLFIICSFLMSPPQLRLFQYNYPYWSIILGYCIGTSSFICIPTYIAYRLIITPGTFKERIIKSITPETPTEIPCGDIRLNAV
dopaminergic receptors D3, sequence (P35462 whole entry): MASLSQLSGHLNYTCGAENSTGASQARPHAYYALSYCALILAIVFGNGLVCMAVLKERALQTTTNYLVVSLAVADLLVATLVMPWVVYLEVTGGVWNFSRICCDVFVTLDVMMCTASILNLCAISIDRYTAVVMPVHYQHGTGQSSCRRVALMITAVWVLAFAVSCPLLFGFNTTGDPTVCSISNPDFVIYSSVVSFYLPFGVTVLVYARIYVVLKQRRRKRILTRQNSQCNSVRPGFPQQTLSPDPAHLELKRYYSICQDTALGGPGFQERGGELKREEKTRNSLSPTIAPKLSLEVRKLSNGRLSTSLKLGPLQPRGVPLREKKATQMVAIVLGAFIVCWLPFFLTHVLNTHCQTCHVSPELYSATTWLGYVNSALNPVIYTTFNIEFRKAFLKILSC

Turning to `O=S(=O)(NC1CCN(CCCc2noc3cc(F)ccc23)C1)c1ccc(Cl)c(F)c1` (stereo not shown) [Compound 11, 4-Chloro-3-fluoro-N-[1-[3-(6-fluoro-1,2-benzoxazol-3-yl)propyl]-pyrrolidin-3-yl]benzene-sulphonamide], the inhibition at 1 µM on M3 muscarinic receptors was 3%; in test [1], -6%; in test [2], 89%; in test [4], 37%; at 5-HT2C receptor it was 27%; in test [5], 60%. Moreover, the inhibition at 1 µM on 5-HT2A receptor was found to be 100%; in test [6], 49%. For the same molecule, the “σ [%]” value in the test with σ receptors is listed as 74%. In test [3], the “α1 [%]” value is reported as 70%.
With `O=S(=O)(NC1CCN(CCCc2noc3cc(F)ccc23)C1)c1cccc2ccccc12` (stereo not shown) [Compound 20, N-[1-[3-(6-Fluoro-1,2-benzoxazol-3-yl)propyl]pyrrolidin-3-yl]naphthalene-1-sulphonamide], the inhibition at 1 µM is -7% on M3 muscarinic receptors; 6% in [1]; 95% in test [2]; 36% in test [4]; 33% on 5-HT2C receptor; 67% in test [5]. In addition, the inhibition at 1 µM at 5-HT2A receptor amounted to 100%; in test [6], 69%. Moreover, the “σ [%]” value in the test on σ receptors turned out to be 83%. The “α1 [%]” value in test [3] is on record as 86%.
Regarding `O=S(=O)(NC1CCN(CCCc2noc3cc(F)ccc23)C1)c1ccc2ccccc2c1` (stereo not shown) [Compound 21, N-[1-[3-(6-Fluoro-1,2-benzoxazol-3-yl)propyl]pyrrolidin-3-yl]naphthalene-2-sulphonamide], the inhibition at 1 µM was -11% at M3 muscarinic receptors; 59% in [1]; 100% in test [2]; 57% in [4]; 71% at 5-HT2C receptor; 66% in test [5]. In addition, the figures for the inhibition at 1 µM (at 5-HT2A receptor; in test [6]) were 100% and 96%, respectively. For the same molecule, the “σ [%]” value with σ receptors came to 60%. Further, the “α1 [%]” value in test [3] amounted to 95%.
Regarding `O=S(=O)(NC1CCN(CCCc2noc3cc(F)ccc23)C1)c1ccc2cc(Cl)ccc2c1` (stereo not shown) [Compound 23, 6-Chloro-N-[1-[3-(6-fluoro-1,2-benzoxazol-3-yl)propyl]pyrrolidin-3-yl]naphthalene-2-sulphonamide], the inhibition at 1 µM on M3 muscarinic receptors was found to be 10%; in test [1] it was 53%; in test [2], 100%; in test [4], 60%; on 5-HT2C receptor, 67%; in test [5], 24%. In addition, the inhibition at 1 µM was 99% on 5-HT2A receptor and 95% in [6]. Besides, in the test with σ receptors, the “σ [%]” value turned out to be 61%. Besides, in test [3], the “α1 [%]” value was determined as 64%.
As for `Cc1c(S(=O)(=O)NC2CCN(CCCc3noc4cc(F)ccc34)C2)sc2ccc(Cl)cc12` (stereo not shown) [Compound 29, 5-Chloro-N-[1-[3-(6-fluoro-1,2-benzoxazol-3-yl)propyl]pyrrolidin-3-yl]-3-methyl-benzothiophene-2-sulphonamide], the inhibition at 1 µM is 30% on M3 muscarinic receptors; 44% in [1]; 97% in [2]; 59% in test [4]; 28% on 5-HT2C receptor; 70% in test [5]. The inhibition at 1 µM in test [6] stood at 85%. Moreover, the “σ [%]” value in the test on σ receptors amounted to 60%. Moreover, the “α1 [%]” value in [3] worked out at 18%.
In the case of `O=S(=O)(NC1CCN(CCCc2noc3cc(F)ccc23)C1)c1cc2ccccc2o1` (stereo not shown) [Compound 216, N-[1-[3-(6-Fluoro-1,2-benzoxazol-3-yl)propyl]pyrrolidin-3-yl]benzofuran-2-sulphonamide], the inhibition at 1 µM at M3 muscarinic receptors stood at 28%; in test [1], 53%; in test [2], 98%; in test [4] it was 61%; at 5-HT2C receptor, 62%; in test [5] it was 35%. In test [6], the inhibition at 1 µM worked out at 85%. The “σ [%]” value in the test with σ receptors is on record as 88%. Moreover, the “α1 [%]” value in [3] is reported as 84%.
Take `Cc1ccc2sc(S(=O)(=O)NC3CCN(CCCc4noc5cc(F)ccc45)C3)cc2c1` (stereo not shown) [Compound 226, N-[1-[3-(6-Fluoro-1,2-benzoxazol-3-yl)propyl]pyrrolidin-3-yl]-5-methylbenzothiophene-2-sulphonamide]: the inhibition at 1 µM was 8% on M3 muscarinic receptors; 54% in [1]; 99% in test [2]; 73% in test [4]; 89% at 5-HT2C receptor; 43% in [5]. Moreover, in test [6], the inhibition at 1 µM was found to be 95%. For the same molecule, in the test on σ receptors, the “σ [%]” value was 82%. For the same molecule, the “α1 [%]” value in test [3] was 73%.
As for `COc1ccc2cc(S(=O)(=O)NC3CCN(CCCc4noc5cc(F)ccc45)C3)ccc2c1` (stereo not shown) [Compound 227, N-[1-[3-(6-Fluoro-1,2-benzoxazol-3-yl)propyl]pyrrolidin-3-yl]-6-methoxy-naphthalene-2-sulphonamide], the inhibition at 1 µM on M3 muscarinic receptors is 13%; in test [1], 69%; in [2] it was 97%; in test [4], 69%; on 5-HT2C receptor it was 82%; in [5], 62%. In addition, the inhibition at 1 µM in [6] is 96%. Moreover, the “σ [%]” value in the test on σ receptors worked out at 59%. In addition, the “α1 [%]” value in test [3] came to 85%.
Take “N-[1-[3-(6-Fluoro-1,2-benzoxazol-3-yl)propyl]pyrrolidin-3-yl]-1-methyl-imidazole-4-sulphonamide [Compound 217]”: at M3 muscarinic receptors, the “M3 [%]” value is 6%. For the same molecule, in the test on σ receptors, the “σ [%]” value was 86%. Also, the “SERT [%]” value in test [1] was 90%. The “D2 [%]” value in test [2] is listed as 96%. Besides, the “α1 [%]” value in test [3] is on record as 40%. Besides, the “H1 [%]” value in test [4] is 46%. For the same molecule, on 5-HT2C receptor, the “5-HT2C [%]” value is listed as 67%. Further, the “5-HT1A [%]” value in test [5] is 54%. For the same molecule, the “D3 [%]” value in test [6] is recorded as 84%.
